# Measurements taken from patent publication US8697747B2, “Enhancing coagulation or reducing fibrinolysis” (THe UAB Research Foundation, priority 2009, dated 2014).
# Columns and labels:
# [1] = tested on: TAFI deficient plasma; assay: CLSM thrombelastography with tPA, TAFI deficient plasma; format: biochemical, human; settings: 100 μM CORM-2, tPA 100 IU/mL, median, n=8
# Description: Pooled normal plasma (George King Bio-Medical, Overland Park, Kans.) anticoagulated with sodium citrate was utilized for experimentation. […] Factor XIII (FXIII) deficient plasma anticoagulated with sodium citrate was also obtained from the same vendor.
# Plasma Sample Composition. The final volume for all subsequently described plasma sample mixtures was 359.4 μL. Sample composition consisted of 316 μL of plasma; 10 μL of tissue factor (0.1% final concentration in 0.9% NaCl; Diagnostica Stago, Asnieres, France), 3.6 μL of dimethyl sulfoxide (DMSO) or DMSO with CORM-2 (Sigma-Aldrich, St. Louis, Mo.) or DMSO with inactivated CORM-2 (iCORM-2), 10 μL of tissue-type plasminogen activator (tPA, 580 U/μg, Genentech, Inc., San Francisco, Calif.) diluted with 10 mM potassium phosphate buffer (pH 7.4) for a final activity of 100 IU/mL, and 20 μL of 200 mM CaCl2. […] This concentration of CORM-2 was chosen because the concentration of CO released would be expected to be in the mid to lower ranges used in previously reported ex vivo, in vitro, and cell-based experiments (Motterlini et al. 2002; Megias et al. 2007; Chlopicki et al. 2006; Dong et al. 2008). […] (Motterlini et al. 2005). While CORM-2 decays slowly in DMSO, DMSO was added to the dry compound just prior to placement into the plasma mixture. The specific series of experiments are subsequently presented.
# Assessment of the Effects of CORM-2 on CLSM Parameters in FXIII, PAI-1, TAFI and α2-antiplasmin Deficient Plasmas. These experiments were performed to elucidate the roles played by antifibrinolytic enzymes during CORM-2 mediated modulation of fibrinolysis. Samples of the various deficient plasmas were exposed to 0 or 100 μM of CORM-2 (n=8 per condition). Samples underwent CLSM analyses as subsequently described.
# Clot Lifespan Model Analyses. As described in Example 1, plasma sample mixtures were placed in a disposable cup in a computer-controlled THROMBELASTOGRAPH® hemostasis system (Model 5000, Haemoscope Corp., Niles, Ill.), with addition of CaCl2 as the last step to initiate clotting. Data were collected until clot lysis time occurred. […] As this model involves complete fibrinolysis, TTG is equivalent to ACL, so ACL was not presented as it provides no additional information.
# Statistical Analyses. Data are presented as median (1st, 3rd quartiles). […] Nonlinear and linear analyses and curve fitting of the various CORM-2 concentrations effects on CLSM variables were performed with commercially available software (SigmaPlot 11.0, Systat Software, Inc., San Jose, Calif.). Analyses of the effects of CORM-2 and iCORM-2 on CLSM variables in normal plasma were conducted with Kruskal-Wallis one way analysis of variance on ranks, whereas Mann-Whitney rank sum tests were used to assess the effects of CORM-2 on CLSM variables in the various immunodepleted/congenitally deficient plasma types (SigmaStat 3.1, Systat Software, Inc., San Jose, Calif.). Graphical representation of the data was generated with commercially available software (SigmaPlot 11.0, Systat Software, Inc., San Jose, Calif.; CorelDRAW 12.0, Corel Corporation, Ottawa, Ontario, Canada; Origin 7.5, OriginLab Corp., Northampton, Mass.). A P value of <0.05 was considered significant.
# [2] = tested on: fibrinogen deficient plasma; assay: Thrombelastography in fibrinogen deficient plasma with added fibrinogen; format: biochemical, human
# Description: Plasma types, purified proteins and compounds. Prothrombin deficient plasma (George King Bio-Medical, Overland Park, Kans.) anticoagulated with sodium citrate was utilized for experimentation concerning the effects of CORM-2 on prothrombin. Purified prothrombin (Enzyme Research Laboratories, South Bend, Ind.) that was 95% pure (10.4 mg/mL, 11.1 U/mg, suspended in 20 mM Tris-HCl in 0.1M NaCl at pH 7.4) was used for experimentation. Fibrinogen deficient plasma (Affinity Biologicals, Inc., Ancaster, Ontario, Canada) anticoagulated with sodium citrate was used in experiments investigating the effects of CORM-2 on fibrinogen. […] CORM-2 and dimethyl sulfoxide (DMSO) were obtained from Sigma-Aldrich, St. Louis, Mo.
# Fibrinogen deficient plasma experiments. In these experiments, the final plasma sample mixture volume was 358.6 μL. Sample composition consisted of 260 μL of fibrinogen deficient plasma, 65 μL of pure fibrinogen solution, and dH2O to generate discrete fibrinogen concentrations subsequently described, 3.6 μL of DMSO or CORM-2 in DMSO (final CORM-2 concentration 0 or 100 μM, n=4 per fibrinogen concentration), 10 μL of tissue factor reagent (0.1% final concentration), and 20 μL of 200 mM CaCl2. The fibrinogen concentrations studied were 100, 200, 300, 400, 500, 600, and 800 mg/dL.
# Thrombelastographic monitoring. Plasma sample mixtures were placed in a disposable cup in a computer-controlled THROMBELASTOGRAPH® hemostasis system (Model 5000, Haemoscope Corp., Niles, Ill.), with addition of CaCl2 as the last step to initiate clotting. Data were collected until clot strength stabilized. The following previously described variables (Examples 1-3) were determined at 37° C.: Time to maximum rate of thrombus generation (TMRTG): This is the time interval (sec) observed prior to maximum speed of clot growth. […]
# Statistical Analyses. […] The difference between the mean values of MRTG or TTG in samples exposed to 0 or 100 μM CORM-2 were determined and expressed as percent difference secondary to CORM-2 exposure in the fibrinogen deficient plasma experiments.
# [3] = 100 μM vs 0 μM CORM-2, fibrinogen 300 mg/dL
smiles,measurement,setting,value
"[C-]#[O+].[C-]#[O+].[C-]#[O+].[C-]#[O+].[C-]#[O+].[C-]#[O+].[Cl][Ru][Cl].[Cl][Ru][Cl] [CORM-2, tricarbonyldichlororuthenium (II) dimer]",CGT (clot growth time),[1],410 s
same,CLS (clot lifespan),[1],370 s
same,CLT (clot lysis time),[1],932 s
same,MRL (maximum rate of lysis),[1],−1.4 -dynes/cm^2/sec
same,MRTG (maximum rate of thrombus generation),[1],6.1 dynes/cm^2/sec
same,TMRL (time to maximum rate of lysis),[1],612 s
same,TMRTG (time to maximum rate of thrombus generation),[1],175 s
same,TTG (total thrombus generation),[1],142 dynes/cm^2
same,"TMRTG, range of values","[2]; 100 μM CORM-2, fibrinogen 100-800 mg/dL",2.83 to 4.00 min
same,increase in MRTG secondary to CORM-2 exposure,[2]; [3],> 80%
same,increase in TTG secondary to CORM-2 exposure,[2]; [3],> 80%
